Measurements reported in PubChem BioAssay (NCI).
Values joined by “and” are separate entries in the source; they are usually repeats but may differ in a detail not shown here. Identical values can stand only once.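 Assay format: 96-well plates, 48-hour exposure. GI50 = concentration required for 50% inhibition of growth. The concentration for full growth arrest is given as TGI.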

Assays:
Experiment in all cases: DTP human tumour cell line panel, 48 h
[1] = tested on: K-562 leukemia
[2] = tested on: OVCAR-5 ovarian
[3] = tested on: ACHN renal
[4] = tested on: HCT-116 colon
[5] = tested on: CCRF-CEM leukemia
[6] = tested on: SK-OV-3 ovarian
[7] = tested on: SNB-75 CNS
[8] = tested on: HOP-62 NSCLC
[9] = tested on: A549 NSCLC
[10] = tested on: MDA-MB-231 breast
[11] = tested on: NCI-H23 lung
[12] = tested on: MCF7 breast

Row | Structure (SMILES) | TGI [1] [µM] | TGI [2] [µM] | TGI [3] [µM] | TGI [4] [µM] | TGI [5] [µM] | TGI [6] | TGI [7] | TGI [8] | TGI [9] [µM] | TGI [10] | TGI [11] [µM] | TGI [12] [µM] | GI50 [10]
1 | COC1(C)CC2N(C(=O)c3ccccc3)N=C(c3ccccc3)CC2(C)O1 (centres undefined) | > 100 | > 100 | > 100 | > 100 | > 100 | > 100 µM | > 100 µM | > 100 µM | > 100 |  |  |  | 
2 | CCCCN(CC)c1nc(C)nc2c1c(C)c(C)n2-c1c(C)cc(C)cc1C | 29.8 | 28.8 | 28.1 | 23.4 | 32.7 | 32.9 µM | 27.4 µM | 32.9 µM | 30.2 | 29.1 µM | 28.2 |  | 
3 | COC(=O)c1cc(CC(C)C)c2c(c1)[nH]c1ccccc12 | > 100 | > 100 | > 100 | > 100 | > 100 | > 100 µM | > 100 µM |  | > 100 |  | > 100 |  | 
4 | COC(=O)C1=C(C(=O)OC)C2OC1C1C2C2(C)C(C)=C(C)C1(C)S2=O (centres undefined) | > 100 | 38.8 | 12.9 | 27 |  | > 100 µM | 38.1 µM | 41.8 µM | > 55.8 | > 55.7 µM | 25.8 | > 45.3 | 
5 | COc1ccc(/C(=C/n2ccnc2)C(=O)c2ccc(OC)c(OC)c2)cc1 | > 100 | > 100 | > 100 | > 100 | > 100 |  | > 100 µM | > 100 µM | > 100 |  | > 100 |  | 
6 | CC(C)=CCN1CC(C)C(=O)Nc2cc(Cl)ccc21 (centres undefined) | > 100 | > 100 | 67.5 | 31.9 | > 100 | 84.4 µM |  | 81.4 µM | > 100 | 50.2 µM | 85.5 | 44.6 | 
7 | Cc1cc(=O)cc2sc3c(C)cccc3nc1-2 | 91.2 | > 100 | > 100 | 60.5 | 59.4 | > 100 µM | > 100 µM | > 100 µM | > 100 |  | > 100 |  | 
8 | COC(=O)C(C#N)=C1c2ccccc2Oc2ccccc21 | > 100 | > 100 | > 100 |  | > 100 | > 100 µM | > 100 µM | > 100 µM | > 100 |  | > 100 |  | 
9 | Cc1ccccc1C1OC1C(=O)c1ccccc1N (centres undefined) | > 100 | > 100 | > 100 | > 100 | > 100 | > 100 µM |  |  | > 100 | > 100 µM | > 100 | > 100 | 
10 | O=C1NC(c2ccc(O)cc2)C2CCC1C2 (centres undefined) | > 100 | > 100 | > 100 | > 100 | > 100 | > 100 µM | > 100 µM | > 100 µM | > 100 |  | > 100 |  | 
11 | CCCN=C1CC(C)Nc2ccccc2N1 (centres undefined) | > 100 | > 100 | > 100 | > 100 | > 100 | > 100 µM | > 100 µM | > 100 µM | > 100 | > 100 µM | > 100 |  | 
12 | O=c1[nH]c2nc3ccccc3c(=O)n2/c1=C/c1ccc(O)cc1 |  | > 100 | > 100 | > 100 | > 100 | > 100 µM | > 100 µM | > 100 µM | > 100 | > 100 µM | > 100 | > 100 | 
13 | O=C(/C=C/c1ccccc1)/C=C/c1ccccc1O | 38.9 | 65.3 | 42.1 | 28.7 | 48.1 | 57.5 µM |  | > 100 µM | 54.3 |  | 49.3 |  | 
14 | O=C(/C(=C(/Br)I)c1ccccc1)c1ccccc1 | 39.3 | > 100 | 71.2 | 31.7 | 30.4 | > 100 µM | 71 µM |  | > 100 | 60.1 µM | > 100 | 94.4 | 
15 | CCN(CC)CCn1c2cc3c(cc2c(=O)c2cccnc21)OCCO3 |  |  | > 10 | > 10 | > 10 | > 10 µM | > 10 µM | > 10 µM | > 10 | > 10 µM | > 10 | > 10 | 
16 | O=C1CC(C(O)CO)CC(=O)N1 (centres undefined) | > 100 | > 100 | > 100 | > 100 | > 100 |  |  | > 100 µM | > 100 | > 100 µM | > 100 | > 100 | 
17 | N#Cc1c(N)[nH]c(=S)c(C#N)c1-c1cccc(Cl)c1 | > 100 | > 100 | > 100 | 60.6 |  |  |  | > 100 µM | > 100 | > 100 µM | > 100 | > 100 | 
18 | COc1ccc(-c2c(C#N)c(S)n(C3OC(COC(C)=O)C(OC(C)=O)C(OC(C)=O)C3OC(C)=O)c(=O)c2C#N)cc1 (centres undefined) |  | > 100 | > 100 | > 100 | > 100 | 75.8 µM and > 100 µM | 60.6 µM and 89 µM | 67.5 µM and > 100 µM | > 100 | 83.5 µM and > 100 µM | > 100 | > 100 | 21.7 µM and 55 µM
19 | c1sc(NC2=NCCO2)c2c1CCCC2 | > 100 | > 100 | > 100 | > 100 | > 100 | > 100 µM | > 100 µM |  | > 100 | > 100 µM | > 100 | > 100 | 
20 | COc1ccc(C2C(Cl)C(=O)N2NC(=O)c2ccc(NC(C)=O)cc2)cc1 (centres undefined) | > 100 | > 100 | > 100 | > 100 | > 100 | > 100 µM | > 100 µM | > 100 µM | > 100 |  | > 100 |  | 
21 | Cc1c(S(=O)(=O)c2ccccc2)c(N)n(Cc2ccccc2)c1C | > 100 | > 100 | > 100 | > 100 | > 100 | > 100 µM | > 100 µM |  | > 100 | > 100 µM | > 100 | > 100 | 
